# What was measured:
# [1] = Inhibition of human full length HPK1-T165E/S171E mutant expressed in baculovirus expression system assessed as inhibition of SLP76 phosphorylation using biotinylated SLP76 as substrate preincubated for 30 mins followed by incubation with substrate in presence of ATP and measured for 60 mins by HTRF assay
# [2] = Inhibition of KHS1 (unknown origin); parameters: species or system Homo sapiens
# [3] = Selectivity ratio of IC50 for inhibition of MAP4K4 (unknown origin) to Ki for inhibition of human full length HPK1-T165E/S171E mutant expressed in baculovirus expression system
# [4] = Volume of distribution at steady state in Beagle dog at 0.5 mg/kg, po or 0.5 mg/kg, iv measured for 24 hrs by LC/MS/MS analysis; assay type: ADME, organism-based, Canis lupus familiaris; conditions: in vivo
# [5] = biological target: Voltage-dependent L-type calcium channel subunit alpha-1C (Homo sapiens, UniProt Q13936); test: Inhibition of Cav1.2 (unknown origin)
# [6] = biological target: Voltage-gated inwardly rectifying potassium channel KCNH2 (Homo sapiens, UniProt Q12809); test: Inhibition of hERG; assay type: toxicity
# [7] = biological target: T1, Mitogen-activated protein kinase kinase kinase kinase 1 (Homo sapiens, UniProt Q92918); test: Inhibition of HPK1 in human Jurkat cells assessed as inhibition of anti-CD3/anti-CD28-induced SLP76 phosporylation at Ser376 residue incubated for 30 mins by ELISA; assay type: cell-based
# [8] = Selectivity ratio of IC50 for inhibition of KHS1 (unknown origin) to Ki for inhibition of human full length HPK1-T165E/S171E mutant expressed in baculovirus expression system
# [9] = biological target: Mitogen-activated protein kinase kinase kinase kinase 4 (Homo sapiens, UniProt O95819); test: Inhibition of MAP4K4 (unknown origin)
# [10] = Selectivity ratio of IC50 for inhibition of GCK (unknown origin) to Ki for inhibition of human full length HPK1-T165E/S171E mutant expressed in baculovirus expression system
# [11] = Half life in Beagle dog at 0.5 mg/kg, po or 0.5 mg/kg, iv measured for 24 hrs by LC/MS/MS analysis; assay type: ADME, organism-based, Canis lupus familiaris; conditions: in vivo
# Misshapen-like kinase 1 = Misshapen-like kinase 1 (Homo sapiens, UniProt Q8N4C8); test: Inhibition of MINK1 (unknown origin)
# [12] = biological target: TRAF2 and NCK-interacting protein kinase (Homo sapiens, UniProt Q9UKE5); test: Inhibition of TNIK (unknown origin)
# [13] = Volume of distribution at steady state in Sprague-Dawley rat at 0.5 mg/kg, iv measured for 8 hrs by LC-MS/MS analysis; assay type: ADME, organism-based; conditions: in vivo, read-out: Vdss
# Homo sapiens = species on record: Homo sapiens; test: Inhibition of benzodiazepine receptor (unknown origin) at 10 uM
# [14] = Protein binding in dog plasma; assay type: ADME, cell-free, Canis lupus familiaris; conditions: read-out: PPB (converted)
# [15] = Apparent permeability of the compound across apical to basolateral side in dog MDCK1 cells at 10 uM by LC-MS/MS analysis; assay type: ADME, cell-based, Canis lupus familiaris; conditions: MDCK
# [16] = Volume of distribution at steady state in C57BL/6 mouse at 25 mg/kg, po or 1 mg/kg, iv measured for 24 hrs by LC-MS/MS analysis; assay type: ADME, organism-based; conditions: in vivo
# [17] = Half life in Sprague-Dawley rat at 0.5 mg/kg, iv measured for 8 hrs by LC-MS/MS analysis; assay type: ADME, organism-based; conditions: in vivo
# [18] = biological target: Sodium-dependent serotonin transporter (Homo sapiens) (UniProt P31645); test: Inhibition of 5-HTT (unknown origin) at 10 uM
# [19] = Selectivity ratio of IC50 for inhibition of TNIK (unknown origin) to Ki for inhibition of human full length HPK1-T165E/S171E mutant expressed in baculovirus expression system
# [20] = Volume of distribution at steady state in cynomolgus monkey at 0.5 mg/kg, po or 0.5 mg/kg, iv measured for 24 hrs by LC/MS/MS analysis; assay type: ADME, organism-based, Macaca fascicularis; conditions: in vivo
# [21] = Clearance in Sprague-Dawley rat at 0.5 mg/kg, iv measured for 8 hrs by LC-MS/MS analysis; assay type: ADME, organism-based; conditions: in vivo
# [22] = Oral bioavailability in C57BL/6 mouse at 25 mg/kg measured for 24 hrs by LC-MS/MS analysis; assay type: ADME, organism-based; conditions: C57BL/6, mouse, in vivo
# [23] = Oral bioavailability in cynomolgus monkey at 0.5 mg/kg measured for 24 hrs by LC/MS/MS analysis; assay type: ADME, organism-based, Macaca fascicularis; conditions: in vivo
# [24] = Half life in cynomolgus monkey at 0.5 mg/kg, po or 0.5 mg/kg, iv by measured for 24 hrs LC/MS/MS analysis; assay type: ADME, organism-based, Macaca fascicularis; conditions: in vivo
# [25] = Cytotoxicity against human liver-microtissues upto 100 uM; assay type: toxicity, tissue-based
# [26] = biological target: T2, D(4) dopamine receptor (Homo sapiens) (UniProt P21917); test: Inhibition of dopamine D4 receptor (unknown origin) at 10 uM
# T2 sequence (whole entry): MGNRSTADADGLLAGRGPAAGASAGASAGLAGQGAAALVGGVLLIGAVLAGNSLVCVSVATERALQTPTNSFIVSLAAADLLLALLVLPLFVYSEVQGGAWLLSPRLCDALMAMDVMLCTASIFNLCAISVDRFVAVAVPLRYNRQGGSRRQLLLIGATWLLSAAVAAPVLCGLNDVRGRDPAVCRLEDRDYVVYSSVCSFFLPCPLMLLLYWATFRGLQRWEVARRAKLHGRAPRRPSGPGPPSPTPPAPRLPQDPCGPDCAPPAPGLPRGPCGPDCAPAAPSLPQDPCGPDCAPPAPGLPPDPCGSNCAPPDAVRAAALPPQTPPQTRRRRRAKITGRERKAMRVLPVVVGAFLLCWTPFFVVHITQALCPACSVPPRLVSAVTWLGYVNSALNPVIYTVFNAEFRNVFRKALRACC
# [27] = Oral bioavailability in Sprague-Dawley rat; assay type: ADME, organism-based; conditions: in vivo
# [28] = Protein binding in mouse plasma; assay type: ADME, cell-free; conditions: read-out: PPB (converted)
# Aurora kinase B = Aurora kinase B (Homo sapiens, UniProt Q96GD4); test: Inhibition of Aurora kinase B (unknown origin)
# [29] = Selectivity ratio of IC50 for inhibition of MINK1 (unknown origin) to Ki for inhibition of human full length HPK1-T165E/S171E mutant expressed in baculovirus expression system
# [30] = biological target: Leucine-rich repeat serine/threonine-protein kinase 2 (Homo sapiens, UniProt Q5S007); test: Inhibition of LRRK2 (unknown origin)
# [31] = biological target: T3, Mitogen-activated protein kinase kinase kinase kinase 3 (Homo sapiens, UniProt Q8IVH8); test: Inhibition of GLK (unknown origin)
# T3 sequence (Q8IVH8 whole entry): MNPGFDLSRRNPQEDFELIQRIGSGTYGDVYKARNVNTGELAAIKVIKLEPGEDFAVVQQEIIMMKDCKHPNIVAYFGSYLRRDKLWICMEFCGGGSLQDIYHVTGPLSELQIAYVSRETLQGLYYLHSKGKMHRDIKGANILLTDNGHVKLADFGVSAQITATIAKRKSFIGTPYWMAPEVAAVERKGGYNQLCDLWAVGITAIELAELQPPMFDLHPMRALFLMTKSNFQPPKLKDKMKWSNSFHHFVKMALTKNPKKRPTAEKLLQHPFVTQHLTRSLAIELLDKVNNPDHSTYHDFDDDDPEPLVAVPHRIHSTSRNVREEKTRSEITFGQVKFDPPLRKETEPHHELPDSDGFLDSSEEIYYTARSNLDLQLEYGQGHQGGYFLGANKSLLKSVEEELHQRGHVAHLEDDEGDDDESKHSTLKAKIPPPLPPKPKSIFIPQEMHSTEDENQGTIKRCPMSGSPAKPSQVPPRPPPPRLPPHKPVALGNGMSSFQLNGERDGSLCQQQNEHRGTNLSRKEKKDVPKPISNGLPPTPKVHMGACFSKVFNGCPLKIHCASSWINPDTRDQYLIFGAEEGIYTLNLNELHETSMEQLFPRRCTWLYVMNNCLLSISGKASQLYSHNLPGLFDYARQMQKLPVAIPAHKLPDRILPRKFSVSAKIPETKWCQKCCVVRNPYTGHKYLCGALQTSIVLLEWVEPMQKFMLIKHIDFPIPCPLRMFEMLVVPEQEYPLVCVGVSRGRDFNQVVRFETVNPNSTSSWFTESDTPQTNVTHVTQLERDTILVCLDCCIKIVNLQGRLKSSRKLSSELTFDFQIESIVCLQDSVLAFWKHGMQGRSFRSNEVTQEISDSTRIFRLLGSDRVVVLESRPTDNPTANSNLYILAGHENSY
# [32] = biological target: T1, Mitogen-activated protein kinase kinase kinase kinase 1; test: Inhibition of HPK1 in primary human Pan T cells assessed as increase in IL-2 secretion pretreated for 30 mins followed by incubation with anti-CD3/anti-CD28 and measured after 4 hrs by MSD assay; assay type: cell-based, T cell
# [33] = Half life in C57BL/6 mouse at 25 mg/kg, po or 1 mg/kg, iv measured for 24 hrs by LC-MS/MS analysis; assay type: ADME, organism-based; conditions: in vivo
# [34] = Protein binding in rat plasma; assay type: ADME, cell-free; conditions: read-out: PPB (converted)
# [35] = biological target: Sodium channel protein type 5 subunit alpha (Homo sapiens, UniProt Q14524); test: Inhibition of Nav1.5 (unknown origin)
# [36] = biological target: T4, Mitogen-activated protein kinase kinase kinase kinase 2 (Homo sapiens, UniProt Q12851); test: Inhibition of GCK (unknown origin)
# T4 sequence (Q12851 whole entry): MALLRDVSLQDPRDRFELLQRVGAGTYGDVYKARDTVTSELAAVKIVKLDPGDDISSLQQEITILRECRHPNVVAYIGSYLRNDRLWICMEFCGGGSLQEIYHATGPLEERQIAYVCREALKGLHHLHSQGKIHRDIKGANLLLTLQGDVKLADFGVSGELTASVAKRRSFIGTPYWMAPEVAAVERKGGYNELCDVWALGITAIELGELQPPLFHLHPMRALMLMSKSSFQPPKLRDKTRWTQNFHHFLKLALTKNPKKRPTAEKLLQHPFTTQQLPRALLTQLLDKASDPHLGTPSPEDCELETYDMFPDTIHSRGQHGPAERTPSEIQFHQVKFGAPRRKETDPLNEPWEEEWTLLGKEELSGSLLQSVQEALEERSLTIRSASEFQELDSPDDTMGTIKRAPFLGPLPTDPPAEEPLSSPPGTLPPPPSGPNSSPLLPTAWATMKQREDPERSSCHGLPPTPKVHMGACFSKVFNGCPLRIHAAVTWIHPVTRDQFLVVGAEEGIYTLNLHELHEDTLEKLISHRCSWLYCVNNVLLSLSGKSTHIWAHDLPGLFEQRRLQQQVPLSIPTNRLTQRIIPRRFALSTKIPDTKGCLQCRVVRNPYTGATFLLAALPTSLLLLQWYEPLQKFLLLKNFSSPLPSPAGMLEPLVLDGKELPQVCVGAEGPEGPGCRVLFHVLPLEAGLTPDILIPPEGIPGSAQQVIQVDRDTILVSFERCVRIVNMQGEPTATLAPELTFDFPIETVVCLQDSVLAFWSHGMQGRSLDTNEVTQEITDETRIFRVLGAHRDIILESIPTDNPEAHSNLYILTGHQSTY
# [37] = Oral bioavailability in Beagle dog at 0.5 mg/kg measured for 24 hrs by LC/MS/MS analysis; assay type: ADME, organism-based, Canis lupus familiaris; conditions: in vivo
# Hepatocyte = test: Cytotoxicity against human primary hepatocytes upto 100 uM; assay type: toxicity, cell-based
# [38] = Selectivity ratio of IC50 for inhibition of GLK (unknown origin) to Ki for inhibition of human full length HPK1-T165E/S171E mutant expressed in baculovirus expression system
# [39] = Protein binding in cynomolgus monkey plasma; assay type: ADME, cell-free, Macaca fascicularis; conditions: read-out: PPB (converted)
# T1 sequence (Q92918 whole entry): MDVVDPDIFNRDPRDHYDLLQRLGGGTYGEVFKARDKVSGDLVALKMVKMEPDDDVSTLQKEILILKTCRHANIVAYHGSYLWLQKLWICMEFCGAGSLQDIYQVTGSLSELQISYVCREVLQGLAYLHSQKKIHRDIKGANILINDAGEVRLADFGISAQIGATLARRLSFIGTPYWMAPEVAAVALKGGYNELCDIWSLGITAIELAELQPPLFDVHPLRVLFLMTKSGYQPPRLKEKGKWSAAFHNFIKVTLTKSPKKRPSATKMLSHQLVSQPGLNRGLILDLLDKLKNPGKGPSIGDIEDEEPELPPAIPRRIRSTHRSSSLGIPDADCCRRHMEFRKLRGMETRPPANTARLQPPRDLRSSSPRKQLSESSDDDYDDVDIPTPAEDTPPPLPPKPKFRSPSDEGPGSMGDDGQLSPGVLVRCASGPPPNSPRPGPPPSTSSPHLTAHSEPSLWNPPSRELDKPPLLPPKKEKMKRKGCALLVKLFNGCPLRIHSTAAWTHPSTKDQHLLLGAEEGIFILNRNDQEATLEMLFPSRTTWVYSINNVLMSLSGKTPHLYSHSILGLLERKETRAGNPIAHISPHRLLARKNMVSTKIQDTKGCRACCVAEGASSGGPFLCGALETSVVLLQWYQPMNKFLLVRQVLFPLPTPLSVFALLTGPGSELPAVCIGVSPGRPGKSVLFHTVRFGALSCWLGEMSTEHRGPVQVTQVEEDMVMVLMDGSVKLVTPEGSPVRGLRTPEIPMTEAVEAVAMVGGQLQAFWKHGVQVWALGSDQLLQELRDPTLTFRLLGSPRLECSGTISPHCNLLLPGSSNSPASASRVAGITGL
# Sequence of Leucine-rich repeat serine/threonine-protein kinase 2 (Q5S007 whole entry): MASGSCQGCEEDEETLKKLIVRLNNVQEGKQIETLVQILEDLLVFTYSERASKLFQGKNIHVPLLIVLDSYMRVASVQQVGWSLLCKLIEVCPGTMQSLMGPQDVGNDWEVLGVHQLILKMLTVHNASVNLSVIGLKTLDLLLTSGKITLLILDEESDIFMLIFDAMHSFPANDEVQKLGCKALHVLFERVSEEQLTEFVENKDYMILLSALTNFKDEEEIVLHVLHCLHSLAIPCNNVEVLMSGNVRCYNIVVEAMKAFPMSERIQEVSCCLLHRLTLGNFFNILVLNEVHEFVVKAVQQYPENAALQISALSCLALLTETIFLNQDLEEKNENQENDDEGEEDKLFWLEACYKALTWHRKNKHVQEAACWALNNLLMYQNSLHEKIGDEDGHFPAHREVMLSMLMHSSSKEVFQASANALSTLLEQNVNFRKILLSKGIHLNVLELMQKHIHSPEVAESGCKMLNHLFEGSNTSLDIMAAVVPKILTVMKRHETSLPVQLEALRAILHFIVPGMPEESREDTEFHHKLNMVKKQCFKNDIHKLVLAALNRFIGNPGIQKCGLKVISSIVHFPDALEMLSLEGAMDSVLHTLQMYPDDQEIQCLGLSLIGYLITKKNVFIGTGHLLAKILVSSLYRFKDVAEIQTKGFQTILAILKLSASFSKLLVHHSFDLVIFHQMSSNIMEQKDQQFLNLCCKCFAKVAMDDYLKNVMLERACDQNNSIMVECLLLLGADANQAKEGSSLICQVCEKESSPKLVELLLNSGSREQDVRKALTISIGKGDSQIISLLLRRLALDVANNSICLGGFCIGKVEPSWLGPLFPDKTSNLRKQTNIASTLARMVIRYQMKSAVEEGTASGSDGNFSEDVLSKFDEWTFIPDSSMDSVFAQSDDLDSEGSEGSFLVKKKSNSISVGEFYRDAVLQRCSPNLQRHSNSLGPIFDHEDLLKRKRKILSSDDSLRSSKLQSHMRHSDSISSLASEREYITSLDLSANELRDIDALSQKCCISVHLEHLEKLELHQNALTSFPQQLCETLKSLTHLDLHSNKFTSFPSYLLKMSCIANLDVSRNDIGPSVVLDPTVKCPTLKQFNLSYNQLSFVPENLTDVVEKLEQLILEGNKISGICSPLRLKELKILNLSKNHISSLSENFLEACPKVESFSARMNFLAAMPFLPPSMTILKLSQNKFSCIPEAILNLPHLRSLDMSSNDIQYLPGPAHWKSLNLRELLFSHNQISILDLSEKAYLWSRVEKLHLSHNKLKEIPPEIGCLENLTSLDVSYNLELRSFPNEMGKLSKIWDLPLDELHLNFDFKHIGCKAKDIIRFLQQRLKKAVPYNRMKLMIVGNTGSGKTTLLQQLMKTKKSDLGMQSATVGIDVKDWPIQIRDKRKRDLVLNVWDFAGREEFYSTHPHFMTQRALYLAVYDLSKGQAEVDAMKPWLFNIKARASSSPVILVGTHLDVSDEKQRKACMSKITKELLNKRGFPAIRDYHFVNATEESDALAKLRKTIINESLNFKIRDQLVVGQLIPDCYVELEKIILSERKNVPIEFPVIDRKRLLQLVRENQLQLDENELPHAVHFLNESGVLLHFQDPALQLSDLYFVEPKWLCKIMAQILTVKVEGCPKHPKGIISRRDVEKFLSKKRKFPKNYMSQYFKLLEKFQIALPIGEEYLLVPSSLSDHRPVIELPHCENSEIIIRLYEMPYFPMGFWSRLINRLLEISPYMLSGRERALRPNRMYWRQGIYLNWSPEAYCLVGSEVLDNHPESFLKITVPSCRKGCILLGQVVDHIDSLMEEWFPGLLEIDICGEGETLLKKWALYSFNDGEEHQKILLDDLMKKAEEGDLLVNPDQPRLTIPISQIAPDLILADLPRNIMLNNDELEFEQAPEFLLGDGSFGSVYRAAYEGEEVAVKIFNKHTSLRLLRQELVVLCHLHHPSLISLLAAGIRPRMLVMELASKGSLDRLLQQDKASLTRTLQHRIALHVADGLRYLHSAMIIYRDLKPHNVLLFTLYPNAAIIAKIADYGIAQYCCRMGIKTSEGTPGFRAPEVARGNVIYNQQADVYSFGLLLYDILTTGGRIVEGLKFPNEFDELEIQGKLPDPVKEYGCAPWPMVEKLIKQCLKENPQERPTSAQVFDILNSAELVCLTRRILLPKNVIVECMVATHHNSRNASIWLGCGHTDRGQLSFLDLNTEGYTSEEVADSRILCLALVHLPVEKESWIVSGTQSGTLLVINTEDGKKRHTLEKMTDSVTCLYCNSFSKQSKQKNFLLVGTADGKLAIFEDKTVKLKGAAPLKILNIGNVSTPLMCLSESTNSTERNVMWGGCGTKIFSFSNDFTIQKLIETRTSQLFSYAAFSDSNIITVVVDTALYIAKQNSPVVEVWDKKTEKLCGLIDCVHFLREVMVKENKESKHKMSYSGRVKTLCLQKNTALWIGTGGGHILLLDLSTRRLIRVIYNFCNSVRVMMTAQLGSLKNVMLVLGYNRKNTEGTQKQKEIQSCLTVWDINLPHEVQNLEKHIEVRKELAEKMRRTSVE
# Sequence of Misshapen-like kinase 1 (Q8N4C8 whole entry): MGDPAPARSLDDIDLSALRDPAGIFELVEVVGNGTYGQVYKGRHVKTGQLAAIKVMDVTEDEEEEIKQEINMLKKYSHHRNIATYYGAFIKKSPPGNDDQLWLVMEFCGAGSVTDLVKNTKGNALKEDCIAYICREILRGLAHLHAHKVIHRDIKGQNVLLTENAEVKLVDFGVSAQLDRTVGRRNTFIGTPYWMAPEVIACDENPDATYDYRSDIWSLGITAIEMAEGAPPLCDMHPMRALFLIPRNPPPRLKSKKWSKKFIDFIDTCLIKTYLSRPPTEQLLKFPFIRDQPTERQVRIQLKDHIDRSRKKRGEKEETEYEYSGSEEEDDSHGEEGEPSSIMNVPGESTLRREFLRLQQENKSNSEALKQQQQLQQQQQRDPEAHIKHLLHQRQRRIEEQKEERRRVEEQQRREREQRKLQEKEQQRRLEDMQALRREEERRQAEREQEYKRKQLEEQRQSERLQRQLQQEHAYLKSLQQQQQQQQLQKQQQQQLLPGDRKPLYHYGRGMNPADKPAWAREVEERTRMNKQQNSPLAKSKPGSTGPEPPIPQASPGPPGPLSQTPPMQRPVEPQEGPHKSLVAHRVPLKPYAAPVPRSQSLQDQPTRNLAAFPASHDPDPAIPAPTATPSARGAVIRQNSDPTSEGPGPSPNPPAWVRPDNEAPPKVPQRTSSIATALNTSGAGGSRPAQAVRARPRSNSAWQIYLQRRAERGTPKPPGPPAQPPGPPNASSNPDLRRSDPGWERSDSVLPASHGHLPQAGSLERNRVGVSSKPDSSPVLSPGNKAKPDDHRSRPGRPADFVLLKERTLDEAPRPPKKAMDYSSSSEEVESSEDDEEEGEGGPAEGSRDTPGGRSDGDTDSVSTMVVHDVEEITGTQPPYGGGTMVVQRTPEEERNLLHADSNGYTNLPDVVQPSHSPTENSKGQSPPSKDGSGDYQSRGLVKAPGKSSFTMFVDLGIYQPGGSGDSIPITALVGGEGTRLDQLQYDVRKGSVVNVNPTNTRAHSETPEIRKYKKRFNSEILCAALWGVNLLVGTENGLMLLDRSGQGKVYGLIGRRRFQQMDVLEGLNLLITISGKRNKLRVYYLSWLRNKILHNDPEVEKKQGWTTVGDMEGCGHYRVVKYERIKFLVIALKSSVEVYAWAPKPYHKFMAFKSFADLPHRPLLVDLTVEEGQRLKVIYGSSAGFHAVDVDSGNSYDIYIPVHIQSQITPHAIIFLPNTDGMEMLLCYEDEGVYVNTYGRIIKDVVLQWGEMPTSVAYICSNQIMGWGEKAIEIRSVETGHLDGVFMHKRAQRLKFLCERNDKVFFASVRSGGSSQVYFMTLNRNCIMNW
# Sequence of Aurora kinase B (Q96GD4 whole entry): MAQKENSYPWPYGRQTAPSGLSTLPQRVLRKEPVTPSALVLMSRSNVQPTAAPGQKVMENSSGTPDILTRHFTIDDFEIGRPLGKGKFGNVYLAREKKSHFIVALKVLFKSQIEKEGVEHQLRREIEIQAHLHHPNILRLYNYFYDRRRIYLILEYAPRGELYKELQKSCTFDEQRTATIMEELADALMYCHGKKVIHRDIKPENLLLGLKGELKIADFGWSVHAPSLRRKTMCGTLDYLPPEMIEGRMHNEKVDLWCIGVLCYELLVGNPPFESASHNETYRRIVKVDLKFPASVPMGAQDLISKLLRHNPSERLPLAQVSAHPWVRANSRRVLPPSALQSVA
smiles,measurement,setting,value
Cc1ccncc1-c1cc2cc(Nc3cnn([C@@H](C)C#N)c3)ncc2c(N)c1F,Ki,[1],32 nM
Cc1c(-c2cc3cc(NC(=O)O[C@H]4COC[C@@H]4C)ncc3c(N)c2F)cnc2c1NCCO2,IC50,[2],3.1 nM
same,Ratio,[3],> 180
same,Vdss,[4],2.2 L/kg
same,IC50,[5],> 10000 nM
same,IC50,[6],28000 nM
same,IC50,[7],44 nM
same,Ratio,[8],> 170
same,IC50,[9],3.3 nM
same,Ratio,[10],> 69
same,half-life,[11],2.5 h
same,IC50,Misshapen-like kinase 1,3.6 nM
same,IC50,[12],2.3 nM
same,Vd,[13],2.2 L/kg
same,inhibition,Homo sapiens,50%
same,fraction unbound,[14],0.142
same,Papp A→B at 10 µM,[15],15 ×10⁻⁶ cm/s
same,Vdss,[16],1.8 L/kg
same,half-life,[17],1.3 h
same,inhibition,[18],50%
same,Ratio,[19],> 120
same,Vdss,[20],1.9 L/kg
same,clearance,[21],39 mL/min/kg
same,bioavailability,[22],37%
same,bioavailability,[23],53%
same,half-life,[24],1.9 h
same,Activity,[25],Non-Toxic
same,inhibition,[26],50%
same,bioavailability,[27],30%
same,fraction unbound,[28],0.053
same,IC50,Aurora kinase B,46 nM
same,Ki,[1],< 0.019 nM
same,Ratio,[29],> 200
same,IC50,[30],31 nM
same,IC50,[31],0.72 nM
same,EC50,[32],6.4 nM
same,half-life,[33],1.7 h
same,fraction unbound,[34],0.094
same,IC50,[35],> 10000 nM
same,IC50,[36],1.3 nM
same,bioavailability,[37],46%
same,Activity,Hepatocyte,Non-Toxic
same,Ratio,[38],> 40
same,fraction unbound,[39],0.116
